Measured values reported in patent US9291621B2, “AGER-peptides and use thereof” (AbbVie Deutschland GmbH & Co. KG, priority 2005, dated 2016).

Legend:
[1] = system: HEK293 RhoA/NgR/p75 cells; assay: Functional actin cytoskeletal rearrangement (ACR) assay; format: cell-based, human; details: preincubation 0.2, 1, 5 μM; stimulation with AP-Nogo-66 (9.6 μg/ml)
Experimental: 1×10^4 cells were […] into microtiter plates with 96 wells two days before the stimulation. The cells were stimulated with a suitable reagent (e.g. LPA or AP-Nogo-66) in culture medium (RPMI-Glutamax) comprising 5% FCS. After a stimulation period of 5 to 10 minutes, the activation was stopped with cold PBS. The cells were fixed with 3-4% strength paraformaldehyde solution, permeabilized with PBS comprising 0.2% Triton X-100, and incubated with phalloidin Alexa 568 or 488 for 30-45 minutes. Incubation with DAPI additionally took place for 5 minutes for nuclear staining. The cells were visualized with the aid of an epifluorescence microscope (Axiovert 25).
1×10^4 Hek293 RhoA/NgR/p75 cells were transferred into MTP Biocoat microtiter plates with 96 wells two days before the actual start of the test. […] The cells were stimulated with the NgR ligand AP-Nogo-66 (9.6 μg/ml) in culture medium comprising 5% FCS. An unstimulated control mixture (without AP-Nogo66) was prepared for each series of tests. After a stimulation period of 5 to 10 minutes, the activation was stopped with cold PBS. […] were recorded with a cooled CCD camera from Zeiss, and the percentage content of contracted cells, based on the total cell count, was found.

[2] = system: hippocampal sections (CA1 region); assay: Excitatory synaptic transmission and long-term potentiation in hippocampal sections; format: cell-based, male Wistar rats; details: for effect on short-term and long-term potentiation: theta burst stimulation, p=0.016 (NtermR31), p=0.794 (scraNtermR31), repeated measures ANOVA
Experimental: 400 μm-thick transverse hippocampal sections from 7-8-week-old male Wistar rats (Harlan Winkelmann, Bochum, Germany) were prepared using a tissue chopper and equilibrated for at least 1 hour at 33° C. in Carbogen-gassed artificial cerebrospinal fluid (aCSF) of the following composition: NaCl 124 mM; KCl 4.9 mM; MgSO4 1.3 mM; CaCl2 2.5 mM; KH2PO4 1.2 mM; NaHCO3 25.6 mM; glucose 10 mM; pH 7.4. Recordings were made from the section immersed in Carbogen-gassed artificial cerebrospinal fluid (aCSF) of the same composition.
Stimulation of the Schaffer collaterals took place in the stratum radiatum using a monopolar stimulating electrode with biphasic pulse (voltage range 1-5 V). Excitatory post-synaptic potentials (EPSPs) were recorded in the stratum radiatum using aCSF-filled glass electrodes against a chlorinated silver reference electrode (bath). These reflect in particular the strength of the glutamatergic synaptic transmission.
The values were determined from the gradient of the field EPSPs recorded every 5 min for a period of 120 minutes before and 120 minutes after LTP induction. LTP was induced by so-called theta burst stimulation (4×2 pulses at an interval of 200 ms with a double-pulse interval of 10 ms). […]

[3] = target: sRAGE/Aβ globulomer interaction (Homo sapiens, UniProt P05067); details: for inhibition of Aβ oligomer binding to sRAGE: increasing peptide concentrations, Aβ 1/5 biotin globulomer 800 nM
sRAGE/Aβ globulomer interaction, sequence (P05067 672-713 limits assumed): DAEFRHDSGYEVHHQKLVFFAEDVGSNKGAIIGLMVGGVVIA
Experimental: The HTRF donor and acceptor components, Anti6HIS europium cryptate (CIS Bio catalogue number: 61HISKLA; 500 wells/13 μg) and streptavidin XL-665 (CIS Bio catalogue number: 61HISAXLA, 500 wells/250 μg) were each dissolved in 250 μl of dd H2O, Starting from these stock solutions, 1:50 working dilutions were prepared with a final concentration of 7.4 nM Anti6His cryptates and 121.2 nM streptavidin XL-665 in PBS, 0.1% BSA, pH 7.4.
Working solutions of peptides 6 and 7 were prepared with concentrations of 200 μM, 100 μM, 50 μM, 25 μM, 12.5 μM, 6.25 μM, 3.125 μM, 1.56 μM and 0.78 μM.
To carry out the tests, initially 4 μl of the working solutions of each of peptides 6 and 7, and of a buffer control, were mixed with 4 μl of a 4 μM stock solution of the Aβ 1/5 biotin globulomer (final assay concentration 800 nM) and incubated at room temperature for one hour. The A beta 1/5 biotin globulomer concentration indicated here is based on the Aβ 1-42 monomers which were used to prepare the globulomers.
2 μl portions of the 7.4 nM Anti6His cryptates and of the 121.2 nM streptavidin solution described above were added in order then to incubate this mixture, now at 4° C., for a further two hours. After addition of 4 μl of a 2M KF stock solution, the complete mixture was measured in a BMG Pherastar fluorescence measuring instrument (BMG Labtech GmbH, Offenburg, Germany) in HTRF mode. Separate measurements without peptide were carried out for the max-signal curve. For the background curve, measurements were used with in each case only the AntiGHIS cryptates and strepavidin XL solutions. The calculated % DeltaF values were transferred into GraphPad Prism 4 (GraphPad Software, San Diego, USA) and evaluated. The concentrations indicated in the graphs are based on the final concentration of the complete 20 μl mixture.

[4] = target: T1, sRAGE-6×HIS (amino acids 23-352, NP_001127) (Homo sapiens, UniProt Q15109); assay: AlphaScreen measurement of peptide binding to sRAGE; details: for binding to the receptor (AlphaScreen): biotinylated control peptides 0, 10, 30, 100, 300 nM
T1 construct: fusion protein sRAGE-6×HIS (amino acids 23-352, NP_001127); made in house
T1 sequence (Q15109 with tags, fused parts or gaps): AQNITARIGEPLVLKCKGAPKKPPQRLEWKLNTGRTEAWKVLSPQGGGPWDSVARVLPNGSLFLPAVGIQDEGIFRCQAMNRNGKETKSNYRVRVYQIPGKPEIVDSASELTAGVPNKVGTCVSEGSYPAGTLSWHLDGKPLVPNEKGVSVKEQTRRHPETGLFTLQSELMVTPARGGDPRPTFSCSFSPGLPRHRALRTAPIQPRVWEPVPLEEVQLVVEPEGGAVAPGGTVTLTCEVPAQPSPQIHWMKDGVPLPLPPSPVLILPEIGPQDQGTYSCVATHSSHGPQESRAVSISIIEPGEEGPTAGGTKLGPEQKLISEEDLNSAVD
Experimental: The entire homogeneous assay was carried out in 25 mM HEPES, 100 mM NaCl of pH 7.4 and 0.1% BSA in a volume of 20 μl.
The individual components were brought together in a defined time sequence. […] The various amounts of peptide were then added in order, after a further 30 minutes, to add the donor beads. After a further 60 minutes, the fluorescence was measured in the AlphaQuest instrument from Perkin-Elmer with a time lag of one second. Each measured point was determined as triplicate. The analysis and graphical workup of the results took place with the GraphPrism 4.0 software package.
The binding to the RAGE receptor was measured by employing the AlphaScreen™ System (order number: 6760610M) from Perkin Elmer (Shelton, Conn., USA).
The assay was carried out by the manufacturer's protocol in 25 mM HEPES, 100 mM NaCl of pH 7.4 and 0.1% BSA in a volume of 20 μl. The mixture comprised 2.5 ng/μl of the fusion protein sRAGE-6×HIS (amino acids 23-352, NP_001127), 20 ng/μl anti-HIS acceptor beads, 20 ng/μl streptavidin donor beads and the biotinylated peptides in concentrations of 0, 10, 30, 100, and 300 nM. The peptides, with the exception of AR 1-42 oligomers, were heated at 50° C. for 10 minutes immediately before the test in order to loosen possible aggregations.
The individual components were brought together in a defined time sequence. […] The various amounts of peptide were then added in order, after a further 30 minutes, to add the donor beads. After a further 60 minutes, the fluorescence was measured in the AlphaQuest instrument from Perkin-Elmer with a time lag of one second. Each measured point was determined as triplicate. The evaluation and graphical workup of the results took place with the GraphPrism 4.0 software package.

[5] = biotinylated control peptides 0-300 nM

“QNITARIGEPLVLKCKGAPKKPPQRLEWKLN [NtermR31]” was tested, and the “percentage content of contracted HEK cells” value [1] was “concentration-dependent reduction”, the input/output ratio ([2]; 500 nM) was “unaffected” and the “effect on short-term and long-term potentiation” value ([2]; 500 nM) was “distinctly suppresses”. The “effect on basal synaptic transmission” value ([2]; application for 90 minutes) was “no effect”.

“APLACPRELIKGKWEVKPKRNPKNQLTIGQL [ScraNtermR31]” was tested, and the “effect on short-term and long-term potentiation” value ([2]; 500 nM) was “no effect”.

“LPRHRALRTAPIQPRVWEPVPLEEVQLVVE [peptide 7]” was tested, and the “inhibitory activity, peptide 7 compared with peptide 6” value [3] was “more pronounced” and the “inhibition of Aβ oligomer binding to sRAGE” value [3] was “Inhibition”.

GKPRAPKCLKPEQ [ScraNtermR13] was tested, and the “affinity to sRAGE compared with NtermR13” value [4, 5] was “same or slightly higher affinity” and the “maximum signal intensity in the test” value [4, 5] was “highest maximum signal intensity”.

“TLQSELMVTPARGGDPRPTFSCSFSPGLPR [peptide 6]” was tested, and the “inhibition of Aβ oligomer binding to sRAGE” value [3] was “Inhibition”.

In the case of F P V I P A L F W I V L M [Unpol13], the “binding to the receptor (AlphaScreen)” value [4] was “no bonding”.

R L K R G H A [Plus7] was tested, and the “maximum signal intensity in the test” value [4, 5] was “highest maximum signal intensity”.

With E T E D S D T [Minus7] the “binding to the receptor (AlphaScreen)” value [4] was “no bonding”.

In the case of “F S R I R A T H W R V D G [AlterCharge1]”, the “binding to the receptor (AlphaScreen)” value [4] was “binding”.
